Measured values from patent publication US20220267352A1, “RAPAMYCIN ANALOGS AND USES THEREOF” (Anakuria Therapeutics, Inc., priority 2021, published 2022).

What was measured:
Assay type in all cases: cell-based
mTORC1 over mTORC2 = mTORC1 over mTORC2 selectivity by comparing pS6K1 and pAKT IC50; conditions: by comparing pS6K1 and pAKT IC50, 90 min
In short: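 MCF-7 cells were treated with compounds (0.5% final DMSO) for 90 minutes in one protocol and 2 hours in the other, then lysed. Phospho-signal in lysates was read by bead-based donor/acceptor proximity assay. pS6K1 and pAKT IC50 values were compared to judge mTORC1 over mTORC2 selectivity, at 90 min and at 24 hrs.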

[1] = test system: p-p70 S6 Kinase (Thr389) in MCF-7 cells; experiment: AlphaLISA Ultra pS6K1 assay; conditions: Homo sapiens, 1.5 h; MCF7 cells, 90 min
In short: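 Phospho-S6K1 (Thr389) quantified by AlphaLISA Ultra read-out (2 h acceptor, then 2 h donor beads) in lysates of MCF-7 cells. Cells were plated 20–24 h before, refed 2 h, exposed to compounds for 90 min at 0.5% final DMSO, and lysates stored at −80 °C.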

[2] = test system: p-Akt 1/2/3 (Ser473) in MCF-7 cells; experiment: AlphaLISA Ultra pAKT assay; conditions: Homo sapiens, 1.5 h; MCF7 cells, 90 min
In short: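 MCF-7 cells (16,000˜20,000 per well in 36 μL medium) were seeded in Corning 3701 plates for 20˜24 hour, refreshed with new medium for 90 minutes, then given 12 μL of 4× compound (0.5% final DMSO). Cells were lysed with 2× lysis buffer, and lysate was analyzed by AlphaLISA Ultra pAKT using acceptor and donor beads, read on an EnSpire reader.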

Row | SMILES | mTORC1 selective @ 90 min (mTORC1 over mTORC2) | IC50 [1] [nM] | IC50 [2] [nM]
1 | COCCO[C@@H]1CC[C@@H](C[C@@H](C)[C@@H]2CC(=O)[C@H](C)/C=C(\C)[C@@H](OC)[C@@H](OC)C(=O)[C@H](C)C[C@H](C)/C=C/C=C/C=C(\C)C(OCCOC3COC3)C[C@@H]3CC[C@@H](C)[C@@](O)(O3)C(=O)C(=O)N3CCCC[C@H]3C(=O)O2)C[C@H]1OC (stereo partly drawn) [I-94, (25E,27E,29E,30E,36R,37S,38R,39R,41S,43S,46S,48R,49R,58R)-58-hydroxy-48,49-dimethoxy-46-[(1R)-2-[(1S,3R,4R)-3-methoxy-4-(2-methoxyethoxy)cyclohexyl]-1-methyl-ethyl]-36,37,38,39,50,51-hexamethyl-45-[2-(oxetan-3-yloxy)ethoxy]-67,68-dioxa-59-azatricyclohexatriaconta-25,27,29(50),30(51)-tetraene-52,53,54,55,56-pentone] | Yes | 10 to 100 | ≥ 1000
2 | CO[C@@H]1/C(C)=C/[C@@H](C)C(=O)C[C@@H]([C@H](C)C[C@@H]2CC[C@@H](OC)[C@H](OC)C2)OC(=O)[C@@H]2CCCCN2C(=O)C(=O)[C@]2(O)O[C@@H](CC[C@H]2C)CC(OCCOCCN(C)C)/C(C)=C/C=C/C=C/[C@@H](C)C[C@@H](C)C(=O)[C@@H]1OC (stereo partly drawn) [I-95, (25E,27E,29E,30E,36R,37S,38R,39R,41S,43S,46S,47R,48R,57R)-46-[(1R)-2-[(1S,3R,4R)-3,4-dimethoxycyclohexyl]-1-methyl-ethyl]-45-[2-[2-(dimethylamino)ethoxy]ethoxy]-57-hydroxy-47,48-dimethoxy-36,37,38,39,49,50-hexamethyl-66,67-dioxa-58-azatricyclohexatriaconta-25,27,29(49),30(50)-tetraene-51,52,53,54,55-pentone] | Yes | 100 to 1000 | ≥ 1000
3 | CO[C@@H]1/C(C)=C/[C@@H](C)C(=O)C[C@@H]([C@H](C)C[C@@H]2CC[C@@H](O)[C@H](OC)C2)OC(=O)[C@@H]2CCCCN2C(=O)C(=O)[C@]2(O)O[C@@H](CC[C@H]2C)C[C@@H](OCCOC2COC2)/C(C)=C/C=C/C=C/[C@@H](C)C[C@@H](C)C(=O)[C@@H]1OC [I-96] | No | ≥ 1000 | ≥ 1000
4 | CO[C@@H]1C[C@H](C[C@@H](C)[C@@H]2CC(=O)[C@H](C)/C=C(\C)[C@@H](O)[C@@H](OC)C(=O)[C@H](C)C[C@H](C)/C=C/C=C/C=C(\C)C(OCC3COCCO3)C[C@@H]3CC[C@@H](C)[C@@](O)(O3)C(=O)C(=O)N3CCCC[C@H]3C(=O)O2)CC[C@H]1OC(=O)N(C)CCN1CCOCC1 (stereo partly drawn) [I-99, [(40S,42R,44R)-4-[(2R)-2-[(27E,29E,31E,32E,36R,37S,38R,39R,41S,43S,45S,46S,47R,48R,58R)-47,58-dihydroxy-45,48-dimethoxy-36,37,38,39,49,50-hexamethyl-51,52,53,54,55-pentaoxo-71,72-dioxa-60-azatricyclohexatriaconta-27,29,31(49),32(50)-tetraen-46-yl]propyl]-44-methoxy-42-cyclohexyl]N-methyl-N-(2-morpholinoethyl)carbamate] | Yes | 1 to 10 | ≥ 1000
5 | CO[C@@H]1C[C@H](C[C@@H](C)[C@@H]2CC(=O)[C@H](C)/C=C(\C)[C@@H](O)[C@@H](OC)C(=O)[C@H](C)C[C@H](C)/C=C/C=C/C=C(\C)[C@H](OCCOC3COC3)C[C@@H]3CC[C@@H](C)[C@@](O)(O3)C(=O)C(=O)N3CCCC[C@H]3C(=O)O2)CC[C@H]1OCCCN1C[C@@H](C)O[C@@H](C)C1 [I-100, (27E,29E,31E,32E,39R,40S,41R,44R,46S,48S,50R,51S,53R,54R,63R)-51-[(1R)-2-[(1S,3R,4R)-4-[3-[(2S,6R)-2,6-dimethylmorpholin-4-yl]propoxy]-3-methoxy-cyclohexyl]-1-methyl-ethyl]-53,63-dihydroxy-54-methoxy-39,40,41,44,55,56-hexamethyl-50-[2-(oxetan-3-yloxy)ethoxy]-75,76-dioxa-64-azatricyclohexatriaconta-27,29,31(55),32(56)-tetraene-57,58,59,60,61-pentone] | Yes | 1 to 10 | ≥ 1000
6 | CO[C@@H]1C[C@H](C[C@@H](C)[C@@H]2CC(=O)[C@H](C)/C=C(\C)[C@@H](O)[C@@H](OC)C(=O)[C@H](C)C[C@H](C)/C=C/C=C/C=C(\C)[C@@H](OCCOC3COC3)C[C@@H]3CC[C@@H](C)[C@@](O)(O3)C(=O)C(=O)N3CCCC[C@H]3C(=O)O2)CC[C@H]1OCCCN1C[C@@H](C)O[C@@H](C)C1 [I-101, (27E,29E,31E,32E,39R,40S,41R,44R,46S,48S,50S,51S,53R,54R,63R)-51-[(1R)-2-[(1S,3R,4R)-4-[3-[(2S,6R)-2,6-dimethylmorpholin-4-yl]propoxy]-3-methoxy-cyclohexyl]-1-methyl-ethyl]-53,63-dihydroxy-54-methoxy-39,40,41,44,55,56-hexamethyl-50-[2-(oxetan-3-yloxy)ethoxy]-75,76-dioxa-64-azatricyclohexatriaconta-27,29,31(55),32(56)-tetraene-57,58,59,60,61-pentone] | Yes | 10 to 100 | ≥ 1000
7 | CO[C@@H]1C[C@H](C[C@@H](C)[C@@H]2CC(=O)[C@H](C)/C=C(\C)[C@@H](O)[C@@H](OC)C(=O)[C@H](C)C[C@H](C)/C=C/C=C/C=C(\C)[C@H](OCC3COCCO3)C[C@@H]3CC[C@@H](C)[C@@](O)(O3)C(=O)C(=O)N3CCCC[C@H]3C(=O)O2)CC[C@H]1OC(=O)NCCN1CCOCC1 (stereo partly drawn) [I-102, [(42S,44R,46R)-4-[(2R)-2-[(28E,30E,32E,33E,38R,39S,40R,41R,43S,45S,47R,48S,50R,51R,61R)-47-(1,4-dioxan-2-ylmethoxy)-50,61-dihydroxy-51-methoxy-38,39,40,41,52,53-hexamethyl-54,55,56,57,58-pentaoxo-76,77-dioxa-64-azatricyclohexatriaconta-28,30,32(52),33(53)-tetraen-48-yl]propyl]-46-methoxy-44-cyclohexyl] N-(2-morpholinoethyl)carbamate] | Yes | < 1 | ≥ 1000
8 | CO[C@@H]1C[C@H](C[C@@H](C)[C@@H]2CC(=O)[C@H](C)/C=C(\C)[C@@H](O)[C@@H](OC)C(=O)[C@H](C)C[C@H](C)/C=C/C=C/C=C(\C)[C@@H](OCC3COCCO3)C[C@@H]3CC[C@@H](C)[C@@](O)(O3)C(=O)C(=O)N3CCCC[C@H]3C(=O)O2)CC[C@H]1OC(=O)NCCN1CCOCC1 (stereo partly drawn) [I-103, [(42S,44R,46R)-4-[(2R)-2-[(28E,30E,32E,33E,38R,39S,40R,41R,43S,45S,47S,48S,50R,51R,61R)-47-(1,4-dioxan-2-ylmethoxy)-50,61-dihydroxy-51-methoxy-38,39,40,41,52,53-hexamethyl-54,55,56,57,58-pentaoxo-76,77-dioxa-64-azatricyclohexatriaconta-28,30,32(52),33(53)-tetraen-48-yl]propyl]-46-methoxy-44-cyclohexyl] N-(2-morpholinoethyl)carbamate] | Yes | 1 to 10 | ≥ 1000
9 | CO[C@@H]1C[C@H](C[C@@H](C)[C@@H]2CC(=O)[C@H](C)/C=C(\C)[C@@H](O)[C@@H](OC)C(=O)[C@H](C)C[C@H](C)/C=C/C=C/C=C(\C)[C@H](OCCOC3COC3)C[C@@H]3CC[C@@H](C)[C@@](O)(O3)C(=O)C(=O)N3CCCC[C@H]3C(=O)O2)CC[C@H]1OC(F)F [I-104, (23E,25E,27E,28E,32R,33S,34R,35R,37S,39S,41R,42S,44R,45R,55R)-42-[(1R)-2-[(1S,3R,4R)-4-(difluoromethoxy)-3-methoxy-cyclohexyl]-1-methyl-ethyl]-44,55-dihydroxy-45-methoxy-32,33,34,35,46,47-hexamethyl-41-[2-(oxetan-3-yloxy)ethoxy]-65,66-dioxa-56-azatricyclohexatriaconta-23,25,27(46),28(47)-tetraene-48,49,50,51,52-pentone] | Yes | 10 to 100 | ≥ 1000
10 | CO[C@@H]1C[C@H](C[C@@H](C)[C@@H]2CC(=O)[C@H](C)/C=C(\C)[C@@H](O)[C@@H](OC)C(=O)[C@H](C)C[C@H](C)/C=C/C=C/C=C(\C)[C@@H](OCCOC3COC3)C[C@@H]3CC[C@@H](C)[C@@](O)(O3)C(=O)C(=O)N3CCCC[C@H]3C(=O)O2)CC[C@H]1OC(F)F [I-105, (23E,25E,27E,28E,32R,33S,34R,35R,37S,39S,41S,42S,44R,45R,55R)-42-[(1R)-2-[(1S,3R,4R)-4-(difluoromethoxy)-3-methoxy-cyclohexyl]-1-methyl-ethyl]-44,55-dihydroxy-45-methoxy-32,33,34,35,46,47-hexamethyl-41-[2-(oxetan-3-yloxy)ethoxy]-65,66-dioxa-56-azatricyclohexatriaconta-23,25,27(46),28(47)-tetraene-48,49,50,51,52-pentone] | Yes | 1 to 10 | ≥ 1000
